Patent US20200046746A1, “ANTI-AGING COMPOSITIONS AND METHODS FOR USING SAME” (Prescient Pharma LLC, priority 2015, published 2020)
“And” between values parts separate entries of the source, which are not always exact repeats. Identical values can stand only once.

Legend:
[1] = test system: normal human colon fibroblast cell line CCD 841 CoN (CRL-1790, ATCC); experiment: Senescence beta-galactosidase staining of aged normal human fibroblasts (Example 1); format: cell-based; conditions: lithium carbonate 0.15 μM and/or glycyrrhizic acid 0.25 mM; for effect on beta-galactosidase staining of the fibroblasts in comparison with non-treated controls or monotherapy / % green stained (average green area with and without background subtraction) / % green staining (green stained area of total original area) / visible positive beta-Galactosidase staining: 48 hours; for % green staining: per flask, 48 hours treatment, higher values = more aged cells; for % green stained (average green area with and without background subtraction) / % green staining (green stained area of total original area): per image, substance assigned through Table 3 (Area = Image #); for visible positive beta-Galactosidase staining: visual, light microscope 100× magnification
Description: Aging-associated beta-galactosidase is widely used as a biomarker of senescence. Here we investigated senescence-associated-beta-galactosidase activity of human colon fibroblast cells by visual assessment.
In this Example, the effect of treatment with lithium and glycyrrhizic acid separately, and as a fixed combination, was evaluated on normal human colon fibroblast cell line CCD 841 CoN (CRL-1790, ATCC).
Group 4 (flasks 10-12, control), the medium was changed to fresh compete EMEM medium without drugs as controls.
FIGS. 1-4 show pictures of the staining results for each of the groups, respectively.
Digital pictures showing the staining results for each of the 12 flasks were then independently examined and scored for percentage of area of green (positive) staining based on pixels, with and without background subtraction.
Higher values reflect more intensive green staining which corresponds to more aged cells.

[2] = test system: wild-type N2 Bristol strain of C. elegans; experiment: C. elegans longevity study (Example 4); format: in vivo; conditions: for longevity and survival (longevity effect): wild type C. elegans, lithium carbonate 0.15 or 15 μM
Description: In this fourth Example, the effect of treatment with lithium and Glycyrrhizic acid separately, and as a fixed combination, was further evaluated on the wild-type N2 Bristol strain of C. elegans. Worm stocks were maintained on nematode growth medium (NGM) dishes containing 10 μg/mL cholesterol (Cat. No. C8667; Sigma-Aldrich, Saint Louis, Mo., USA). Dishes were seeded with OP50 Escherichia coli as a food source. Twelve polystyrene petri dishes (35 mm diameter) were prepared by filling with NGM agar containing […] cholesterol, and 25 μM 5-Fluoro-2′-deoxyuridine to suppress reproduction (FUDR; Cat. No. F0503; Sigma-Aldrich, Saint Louis, Mo., USA). The dishes were seeded with OP50 Escherichia coli as a food source. Duplicate dishes were used for each group. The treatment drug was dissolved in deionized water, and added to the dishes for the groups as explained below: […] Group #5: Glycyrrhizic acid in concentration of 0.25 mM. Group #6: untreated (control). NGM-agar treatment plates containing cholesterol (10 μg/mL) and 25 μM 5-Fluoro-2′-deoxyuridine (FUDR; Cat. No. F0503; Sigma-Aldrich, Saint Louis, Mo., USA) to suppress reproduction. […] The survival data for the various groups are also depicted in FIG. 17.

[3] = lithium carbonate 0.15 μM, in the combination plus glycyrrhizic acid 0.25 mM
[4] = lithium carbonate 15 μM, in the combination plus glycyrrhizic acid 0.25 mM

Compound: O=C([O-])[O-].[Li+].[Li+] [Li, lithium carbonate]
- effect on beta-galactosidase staining of the fibroblasts in comparison with non-treated controls or monotherapy [1]: did not appear to have significant effect
- % green staining [1]: 6.25% and 2.83% and 5.24%
- % green stained (average green area with and without background subtraction) [1]: 2.828% and 6.253% and 5.243%
- % green staining (green stained area of total original area) [1]: 2.83% and 6.25% and 5.24%
- visible positive beta-Galactosidase staining [1]: stained positively
- Age in days at % mortality 100% ([2]; lithium carbonate 0.15 μM): 19 days
- Age in days at % mortality 25% [2, 3]: 13 days
- Age in days at % mortality 50% [2, 3]: 15 days
- Age in days at % mortality 75% [2, 3]: 16 days
- Age in days at % mortality 90% [2, 3]: 18 days
- Restricted mean Days [2, 3]: 14.88 days
- Age in days at % mortality 100% ([2]; lithium carbonate 15 μM): 19 days
- Age in days at % mortality 25% [2, 4]: 14 days
- Age in days at % mortality 50% [2, 4]: 15 days
- Age in days at % mortality 75% [2, 4]: 16 days
- Age in days at % mortality 90% [2, 4]: 18 days
- Restricted mean Days [2, 4]: 14.56 days
- longevity and survival (longevity effect) ([2]; glycyrrhizic acid 0.25 mM): not observed

Compound: CC1(C)[C@@H](O[C@@H]2O[C@@H](C(=O)O)[C@H](O)[C@@H](O)[C@@H]2O[C@H]2O[C@@H](C(=O)O)[C@H](O)[C@@H](O)[C@@H]2O)CC[C@]2(C)[C@@H]1CC[C@@]1(C)[C@H]2C(=O)C=C2[C@H]3C[C@@](C)(C(=O)O)CC[C@@]3(C)CC[C@@]21C [G acid, (3β,20β)-20-carboxy-11-oxo-30-norolean-12-en-3-yl 2-O-β-D-glucopyranuronosyl-α-D-glucopyranosiduronic acid]
- effect on beta-galactosidase staining of the fibroblasts in comparison with non-treated controls or monotherapy [1]: did not appear to have significant effect
- % green staining [1]: 9.1% and 10.03% and 6.91%
- % green stained (average green area with and without background subtraction) [1]: 6.908% and 9.104% and 10.03%
- % green staining (green stained area of total original area) [1]: 6.91% and 9.1% and 10.03%
- visible positive beta-Galactosidase staining [1]: stained positively
- Age in days at % mortality 25% ([2]; glycyrrhizic acid 0.25 mM): 14 days
- Age in days at % mortality 50% ([2]; glycyrrhizic acid 0.25 mM): 16 days
- Age in days at % mortality 75% ([2]; glycyrrhizic acid 0.25 mM): 18 days
- Age in days at % mortality 90% ([2]; glycyrrhizic acid 0.25 mM): 19 days
- Age in days at % mortality 100% ([2]; glycyrrhizic acid 0.25 mM): 20 days
- Restricted mean Days ([2]; glycyrrhizic acid 0.25 mM): 16.06 days
- longevity and survival (longevity effect) ([2]; glycyrrhizic acid 0.25 mM): not observed
